From patent US6534490B1, “Unsaturated 14, 15-cyclopropanoandrostanes, method for the production thereof and pharmaceutical preparations containing said compounds” (Jenapharm GmbH & Co. KG., priority 1998, dated 2003)

What was measured:
[1] = molecular target: T1, progesterone receptor of the rabbit uterus (Oryctolagus cuniculus, UniProt P06186); assay: Binding to the progesterone receptor of the rabbit uterus (reference substance progesterone)
T1 construct: from tissue; host or cells: rabbit uterus
T1 sequence (P06186 1-930): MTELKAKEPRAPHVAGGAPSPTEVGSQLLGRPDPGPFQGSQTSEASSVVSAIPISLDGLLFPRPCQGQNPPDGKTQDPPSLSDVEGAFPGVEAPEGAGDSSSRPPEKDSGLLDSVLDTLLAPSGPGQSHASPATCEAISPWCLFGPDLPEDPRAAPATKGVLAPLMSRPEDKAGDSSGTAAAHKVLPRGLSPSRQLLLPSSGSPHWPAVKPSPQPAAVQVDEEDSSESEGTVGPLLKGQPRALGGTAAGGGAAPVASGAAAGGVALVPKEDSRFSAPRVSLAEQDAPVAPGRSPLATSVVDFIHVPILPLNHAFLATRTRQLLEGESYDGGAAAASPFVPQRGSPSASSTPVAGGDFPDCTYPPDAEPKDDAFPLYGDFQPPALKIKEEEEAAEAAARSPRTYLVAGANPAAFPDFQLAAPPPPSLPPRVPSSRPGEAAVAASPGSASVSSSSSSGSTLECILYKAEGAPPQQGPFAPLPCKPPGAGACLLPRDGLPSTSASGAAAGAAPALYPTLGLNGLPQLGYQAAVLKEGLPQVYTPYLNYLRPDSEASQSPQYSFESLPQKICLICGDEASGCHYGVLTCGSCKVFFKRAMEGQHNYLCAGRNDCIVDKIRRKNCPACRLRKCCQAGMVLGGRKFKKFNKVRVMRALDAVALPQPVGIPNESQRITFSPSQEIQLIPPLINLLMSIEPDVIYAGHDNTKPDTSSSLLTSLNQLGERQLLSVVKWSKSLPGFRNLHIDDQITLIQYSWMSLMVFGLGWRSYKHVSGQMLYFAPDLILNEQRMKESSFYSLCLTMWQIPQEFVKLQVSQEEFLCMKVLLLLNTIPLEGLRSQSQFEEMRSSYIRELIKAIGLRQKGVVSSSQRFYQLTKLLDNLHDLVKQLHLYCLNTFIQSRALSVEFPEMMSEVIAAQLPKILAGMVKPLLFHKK

[2] = molecular target: T2, androgen receptor of the rat prostate (Rattus norvegicus, UniProt P15207); assay: Binding to the androgen receptor of the rat prostate (reference substance R 1881); details: relative to reference substance R 1881 (17β-hydroxy-17α-methyl-estra-4,9,11-trien-3-one)
T2 construct: from tissue; host or cells: rat prostate
T2 sequence (P15207 1-902): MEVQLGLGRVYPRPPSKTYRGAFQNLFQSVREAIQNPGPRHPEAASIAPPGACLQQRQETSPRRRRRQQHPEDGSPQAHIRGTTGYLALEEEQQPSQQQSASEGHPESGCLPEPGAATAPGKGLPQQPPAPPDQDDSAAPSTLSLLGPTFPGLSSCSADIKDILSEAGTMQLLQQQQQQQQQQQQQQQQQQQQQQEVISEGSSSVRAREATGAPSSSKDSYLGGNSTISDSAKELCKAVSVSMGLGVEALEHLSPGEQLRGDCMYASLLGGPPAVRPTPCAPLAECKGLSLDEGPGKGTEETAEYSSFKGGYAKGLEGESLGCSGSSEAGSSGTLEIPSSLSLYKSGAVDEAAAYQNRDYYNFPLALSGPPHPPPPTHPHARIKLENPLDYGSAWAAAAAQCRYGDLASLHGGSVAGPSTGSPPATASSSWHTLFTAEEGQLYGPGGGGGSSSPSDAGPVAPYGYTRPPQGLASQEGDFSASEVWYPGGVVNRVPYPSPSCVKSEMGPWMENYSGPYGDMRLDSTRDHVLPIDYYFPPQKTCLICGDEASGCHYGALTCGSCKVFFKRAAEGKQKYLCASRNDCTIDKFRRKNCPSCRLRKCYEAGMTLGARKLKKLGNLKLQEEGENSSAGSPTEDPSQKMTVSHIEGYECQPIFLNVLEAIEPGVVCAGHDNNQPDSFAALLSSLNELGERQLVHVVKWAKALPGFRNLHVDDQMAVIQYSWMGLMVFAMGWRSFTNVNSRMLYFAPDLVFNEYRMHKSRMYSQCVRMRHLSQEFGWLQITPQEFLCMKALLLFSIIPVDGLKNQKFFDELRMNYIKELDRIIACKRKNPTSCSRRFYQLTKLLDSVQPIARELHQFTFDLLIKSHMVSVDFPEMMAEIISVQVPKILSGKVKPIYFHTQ

[3] = Pregnancy maintenance test; format: in vivo
Hershberger Test = format: in vivo

Structure (SMILES): C[C@]12CCC(=O)C=C1CC[C@@H]1[C@@H]2CC[C@]2(C)[C@@H](O)C[C@@H]3C[C@]312 [J 1193, 17β-hydroxy-14α,15α-methylen-androst-4-en-3-one]
- binding to the progesterone receptor [1]: virtually no binding
- binding to the androgen receptor [2]: 24±3%
- gestagenic action [3]: very little gestagenic action
- androgenic activity (Hershberger Test): significant androgenic activity
